Source: paper PMC5266543 (ACS infectious diseases, 2016)
In brackets after ≈: the same amount, converted by molar mass. Entries after “also recorded” stand apart in the source; their conditions may differ. Read-outs that look alike come from different tables or passages of the source. Marks after values point to notes of the source that are not given here.

Columns and labels:
M. tuberculosis H37Rv = experiment: microbe, parasite or virus in culture; format: cell-based, Mycobacterium tuberculosis; details: for MIC: Mycobacterium tuberculosis, H37RV, read-out: M. tuberculosis MIC
Mtb Dxr = target: T1, Mtb Dxr (Mycobacterium tuberculosis, UniProt P9WNS1); format: biochemical; details: for IC50: read-out: Mtb Dxr IC50
T1 sequence (P9WNS1 1-413): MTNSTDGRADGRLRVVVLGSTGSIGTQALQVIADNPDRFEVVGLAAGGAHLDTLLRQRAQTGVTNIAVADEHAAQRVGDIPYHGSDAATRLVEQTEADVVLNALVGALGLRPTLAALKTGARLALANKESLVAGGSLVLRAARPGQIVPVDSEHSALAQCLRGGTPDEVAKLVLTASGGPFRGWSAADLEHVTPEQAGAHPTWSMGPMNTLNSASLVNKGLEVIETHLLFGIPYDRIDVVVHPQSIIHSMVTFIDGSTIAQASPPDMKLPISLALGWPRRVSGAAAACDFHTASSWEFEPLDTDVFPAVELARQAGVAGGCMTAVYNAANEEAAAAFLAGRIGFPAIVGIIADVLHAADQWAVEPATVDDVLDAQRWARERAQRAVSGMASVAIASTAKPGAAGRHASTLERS

Yp Dxr = Yp Dxr (Yersinia pestis, UniProt Q8ZH62); format: biochemical; details: for IC50: read-out: Yp Dxr IC50
E. coli MG1655 = format: cell-based, Escherichia coli
Yp = format: cell-based, Yersinia pestis
Dxr = details: cited from earlier work

Sequence of Yp Dxr (Q8ZH62 whole entry, looked up): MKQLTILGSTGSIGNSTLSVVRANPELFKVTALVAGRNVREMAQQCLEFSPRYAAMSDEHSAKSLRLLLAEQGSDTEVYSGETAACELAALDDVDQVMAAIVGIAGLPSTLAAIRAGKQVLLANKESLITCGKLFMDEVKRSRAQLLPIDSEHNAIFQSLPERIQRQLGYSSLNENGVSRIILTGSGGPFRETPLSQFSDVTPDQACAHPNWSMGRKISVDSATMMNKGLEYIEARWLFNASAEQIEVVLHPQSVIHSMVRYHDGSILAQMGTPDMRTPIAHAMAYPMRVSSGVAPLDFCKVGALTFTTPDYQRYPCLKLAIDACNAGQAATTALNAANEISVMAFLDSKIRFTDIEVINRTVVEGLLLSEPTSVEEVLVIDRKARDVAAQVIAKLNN

Row | SMILES | inhibition of Mtb Dxr (in words) (Mtb Dxr) | percent remaining enzyme activity at 100 µM (Mtb Dxr) (Mtb Dxr) | inhibition of Yp Dxr (in words) (Yp Dxr) | M. tuberculosis MIC (M. tuberculosis H37Rv) | also measured
1 | CC(=O)N(CCCP(=O)(OCOC(=O)C(C)(C)C)OCOC(=O)C(C)(C)C)OCCCCc1ccccc1 [Compound 18, [({[(2,2-dimethylpropanoyl)oxy]methoxy}({3-[N-(4-phenylbutoxy)acetamido]propyl})phosphoryl)oxy]methyl 2,2-dimethylpropanoate] |  |  |  |  | MIC (M. tuberculosis H37Rv): 12.5 µg/mL (≈ 22.4 µM)
2 | CCCCCCC(=O)N(O)CCCP(=O)([O-])O.[Na+] [Compound 8b, Sodium hydrogen-3-(N-hydroxyheptanamido)propyl phosphonate] | inhibited; also recorded: greatest inhibition | (43) ^* percent | inhibited; also recorded: most active |  | percent remaining enzyme activity at 100 µM (Yp Dxr) (Yp Dxr): (27) percent
3 | Cc1ccc(C(=O)N(O)CCCP(=O)([O-])O)cc1.[Na+] [Compound 8f, Sodium hydrogen-3-(N-hydroxy-4-methylbenzamido)propyl phosphonate] |  | (74) percent | most active |  | selectivity between Dxr homologs (Yp versus Mtb) (Yp Dxr): significantly more potent against Yp Dxr; IC50 (Yp Dxr): 16 µM
4 | CC(=O)N(CCCP(=O)(OCOC(=O)C(C)(C)C)OCOC(=O)C(C)(C)C)OCc1ccc(-c2ccccc2)cc1 [Compound 19, [({[(2,2-dimethylpropanoyl)oxy]methoxy}(3-{N-[(4-phenylphenyl)methoxy]acetamido}propyl)phosphoryl)oxy]methyl 2,2-dimethyl propanoate] |  |  |  | 12.5 (3.13–6.25) µg/mL | 
5 | CC(=O)N(CCCP(=O)([O-])O)OCc1ccc(-c2ccc(C(F)(F)F)cc2)cc1.[Na+] [Compound 16r, Sodium Hydrogen 3-(N-((4'-(trifluoromethyl)-[1,1'-biphenyl]-4-yl)methoxy)acetamido)propyl phosphonate] |  | (70) percent | most active |  | percent remaining enzyme activity at 100 µM (Yp Dxr) (Yp Dxr): (19) percent
6 | CC(=O)N(CCCP(=O)([O-])O)OCc1ccc(-c2ccccc2)cc1.[Na+] [Compound 16k, Sodium Hydrogen 3-(N-([1,1'-biphenyl]-4-ylmethoxy)acetamido)propyl phosphonate] | potent inhibitors; also recorded: greatest inhibition | (36.8) percent | potent inhibitors; also recorded: most active | 25 to 50 µg/mL | selectivity between Dxr homologs (Yp versus Mtb) (Yp Dxr): more potent against Yp Dxr; IC50 (Yp Dxr): 8.4 µM
7 | CC(=O)N(CCCP(=O)([O-])O)OCCc1ccc(O)cc1.[Na+] [Compound 16g, Sodium Hydrogen 3-(N-(4-hydroxyphenethoxy)acetamido)propyl phosphonate] |  | (59) percent | most active |  | percent remaining enzyme activity at 100 µM (Yp Dxr) (Yp Dxr): (22) percent; selectivity between Dxr homologs (Yp versus Mtb) (Yp Dxr): same trend
8 | CC(=O)N(CCCP(=O)(OCOC(=O)C(C)(C)C)OCOC(=O)C(C)(C)C)OCc1ccc(C(C)C)cc1 [Compound 17, [({[(2,2-dimethylpropanoyl)oxy]methoxy}[3-(N-{[4-(propan-2-yl)phenyl]methoxy}acetamido)propyl]phosphoryl)oxy]methyl 2,2-dimethyl propanoate] |  |  |  | 12.5 (6.25–12.5) µg/mL | 
9 | CC(=O)N(CCCP(=O)([O-])O)OC(C)c1ccccc1.[Na+] (stereo not shown) [Compound 16e, Sodium Hydrogen 3-(N-(1-phenylethoxy)acetamido)propyl phosphonate] | greatest inhibition | (38.1) percent | most active |  | percent remaining enzyme activity at 100 µM (Yp Dxr) (Yp Dxr): (19) percent
10 | CC(=O)N(CCCP(=O)([O-])O)OCc1ccc(-c2ccc(C(C)C)cc2)cc1.[Na+] [Compound 16p, Sodium Hydrogen 3-(N-((4'-isopropyl-[1,1'-biphenyl]-4-yl)methoxy)acetamido)propyl phosphonate] |  |  |  | 100 (6.25–12.5) µg/mL | 
11 | CC(=O)N(CCCP(=O)(OCOC(=O)c1ccccc1)OCOC(=O)c1ccccc1)OCCCCc1ccccc1 [Compound 21, [({[(benzoyl)oxy]methoxy}({3-[N-(4-phenylbutoxy)acetamido]propyl})phosphoryl)oxy]methyl benzoate] |  |  |  |  | MIC (M. tuberculosis H37Rv): 25 µg/mL (≈ 41.8 µM)
12 | O=C(COc1ccc(Cl)cc1)N(O)CCCP(=O)([O-])O.[Na+] [Compound 8l, Sodium hydrogen-3-(2-(4-chlorophenoxy)-N-hydroxyacetamido)propyl phosphonate] |  |  |  | >200 (25) µg/mL | 
13 | O=C(CCC1CCCCC1)N(O)CCCP(=O)([O-])O.[Na+] [Compound 8d, Sodium hydrogen-3-(3-cyclohexyl-N-hydroxypropanamido)propyl phosphonate] |  |  |  | >200 (25) µg/mL | 
14 | CC(=O)N(O)CCCP(=O)(O)O [Compound 2, FR900098] |  |  |  | >500 µg/mL | IC50 (Mtb Dxr): 2.91 µM; IC50 (Yp Dxr): 0.23 µM; growth inhibition activity (in words) (E. coli MG1655): potently inhibits bacterial propagation in a dose-dependent manner; growth inhibition activity (in words) (Yp): potently inhibits bacterial propagation in a dose-dependent manner; mechanism of inhibition (Dxr): competitive inhibitors with respect to DXP and uncompetitive relative to NADPH
15 | CCCCC(=O)N(O)CCCP(=O)([O-])O.[Na+] [Compound 8a, Sodium hydrogen-3-(N-hydroxypentanamido)propyl phosphonate] | greatest inhibition |  |  |  | 
16 | O=C(CCCc1ccccc1)N(O)CCCP(=O)([O-])O.[Na+] [Compound 8h, Sodium hydrogen-3-(N-hydroxy-4-phenylbutanamido)propyl phosphonate] | greatest inhibition |  | most active | >200 µg/mL | IC50 (Mtb Dxr): 17.8 µM; percent remaining enzyme activity at 100 µM (Yp Dxr) (Yp Dxr): (34) percent; binding modality (Dxr): competitively with DXP but noncompetitively with NADPH
17 | CC(=O)N(CCCP(=O)(OCOC(=O)C(C)(C)C)OCOC(=O)C(C)(C)C)OCc1ccc2ccccc2c1 [Compound 20, [({[(2,2-dimethylpropanoyl)oxy]methoxy}({3-[N-(naphthalen-2-ylmethoxy)acetamido]propyl})phosphoryl)oxy]methyl 2,2-dimethylpropanoate] |  |  |  | 18.75 (4.7) µg/mL | 
18 | O=C(N(O)CCCP(=O)([O-])O)N(c1ccccc1)c1ccccc1.[Na+] [Compound 8n, Sodium hydrogen-3-(1-hydroxy-3,3-diphenylureido)propyl phosphonate] | ineffective |  | ineffective |  | 
19 | O=CN(O)CCCP(=O)(O)O [Compound 1, fosmidomycin, reference compound] |  |  |  |  | MIC (M. tuberculosis H37Rv): > 500 µg/mL; mechanism of inhibition (Dxr): competitive inhibitors with respect to DXP and uncompetitive relative to NADPH
20 | CC(=O)N(CCCP(=O)([O-])O)OCCCCc1ccccc1.[Na+] [Compound 16h, Sodium Hydrogen 3-(N-(4-phenylbutoxy)acetamido)propyl phosphonate] |  |  |  | ≥200 µg/mL | 
21 | O=C(c1ccccc1)N(O)CCCP(=O)([O-])O.[Na+] [Compound 8e, Sodium hydrogen-3-(N-hydroxybenzamido)propyl phosphonate] |  | (70) percent | most active | ≥200 µg/mL | inhibitor modality (Lineweaver-Burk) (Yp Dxr): competitive with both NADPH and DXP; selectivity between Dxr homologs (Yp versus Mtb) (Yp Dxr): significantly more potent against Yp Dxr; Ki (Yp Dxr; read-out: Ki relative to DXP): 7.9 µM; Ki (Yp Dxr; read-out: Ki with respect to NADPH): 1.8 µM; IC50 (Yp Dxr): 4.45 µM
22 | NNC(=O)c1ccncc1 [INH, reference compound] |  |  |  | 0.01 µg/mL | 
23 | CC(=O)N(CCCP(=O)([O-])O)OCc1ccc2ccccc2c1.[Na+] [Compound 16j, Sodium Hydrogen 3-(N-(naphthalen-2-ylmethoxy)acetamido)propyl phosphonate] | potent inhibitors; also recorded: greatest inhibition |  | potent inhibitors; also recorded: most active | ≥200 µg/mL | inhibitor modality (Lineweaver-Burk) (Mtb Dxr): competitive with both NADPH and DXP; Ki (Mtb Dxr; read-out: Ki relative to NADPH): 17.8 µM; Ki (Mtb Dxr; read-out: Ki with respect to DXP): 1 µM; IC50 (Mtb Dxr): 1.45 µM; IC50 (Yp Dxr): 0.33 µM
24 | CC(=O)N(CCCP(=O)([O-])O)OCc1cccc2ccccc12.[Na+] [Compound 16i, Sodium Hydrogen 3-(N-(naphthalen-1-ylmethoxy)acetamido)propyl phosphonate] | greatest inhibition | (29) percent | most active |  | selectivity between Dxr homologs (Yp versus Mtb) (Yp Dxr): more potent against Yp Dxr; IC50 (Yp Dxr): 22.4 µM
25 | CC(=O)N(CCCP(=O)([O-])O)OCc1ccc(C(C)C)cc1.[Na+] [Compound 16d, Sodium Hydrogen 3-(N-((4-isopropylbenzyl)oxy)acetamido)propyl phosphonate] | potent inhibitors; also recorded: greatest inhibition |  | potent inhibitors; also recorded: most active | 200 (25) µg/mL | IC50 (Mtb Dxr): 48.4 µM; selectivity between Dxr homologs (Yp versus Mtb) (Yp Dxr): more potent against Yp Dxr; IC50 (Yp Dxr): 1.19 µM
